Experimental data taken from paper PMC10359466, “Identification of a small-molecule inhibitor that selectively blocks DNA-binding by Trypanosoma brucei replication protein A1” (Nature Communications, 2023).
Several values for one entry are separate records, joined by “and”; a condition that tells them apart may be missing. Equal values may be shown once. Entries after “also recorded” stand apart in the source; their conditions may differ. Read-outs that look alike come from different tables or passages of the source.

Columns and labels:
[1] = tested on: TbRPA complex containing S105T mutation; format: binding, T. brucei; conditions: dT32
T. brucei cells [2] = assay: AlamarBlue cell viability / growth inhibition of T. brucei
Description: Synergy H1 microplate reader (BioTek) was used with 560/590 nm (excitation/emission) filter settings and relative fluorescence unit (RFU) values were obtained. The percentage of viable cells were calculated from the RFU values.
Trypanosome cells were seeded at 1 × 10^3 cells/ml density in 180 µl in a 96-well culture plate in triplicate. […] DMSO was used as a vehicle control at 0.0075%.

[3] = molecular target: T1, HsDBD-F and ATRIP interaction (Homo sapiens, UniProt P27694); assay: MST inhibition of the HsDBD-F binding with ATRIP peptide; conditions: 50 nM Cy5-labeled ATRIP peptide
T1 construct: We purified 6xHis-HsDBD-F (amino acids 1–181), synthesized ATRIP peptide; made in house; host or cells: E. coli BL21 (protein); solid-phase synthesis (peptide)
Text: (§1) Samples were then loaded into MST capillaries.
(§2) We used one site binding to obtain a dissociation constant (Kd) and standard 4-parameter logistic curve (Sigmoidal curve) analysis to obtain the IC50 value of JC-229. We used GraphPad Prism software.

TbRPA1 DBD-AB [4] = molecular target: T2, TbRPA1 DBD-AB (Trypanosoma brucei brucei, UniProt Q384B5); assay: EMSA inhibition of ssDNA binding, TbRPA1 DBD-AB; conditions: 0.625-80 µM, 5´IRDye800-dT32
TcRPA1 DBD-AB = assay: EMSA inhibition of ssDNA binding, TcRPA1 DBD-AB; set-up: species or system T. cruzi
HEK293 = assay: AlamarBlue cell viability of HEK293 cells; format: cell-based, human; conditions: for EC50: HEK293, 72 h
Description: To determine the inhibitory effect of JC-229 on human cells, HeLa and HEK293 cells were suspended in 180 μl D-MEM with 10% FBS and plated at a density of 2 × 10^4 cells/ml in triplicate. […] Percent viability was plotted using GraphPad Prism software. […] We estimated the EC50 values using the concentration of JC-229 that causes a 50% reduction of cell viability (inhibitor vs. normalized response, variable slope).

HsRPA1 DBD-AB [5] = molecular target: T3, HsRPA1 DBD-AB (Homo sapiens, UniProt P27694); assay: EMSA inhibition of ssDNA binding, HsRPA1 DBD-AB; conditions: highest concentration 80 µM
T3 construct: were generated by PCR-amplifying the DBD-AB domain and cloning into a pET28a vector; made in house; host or cells: E. coli BL21

TbRPA1 DBD-AB S105T = assay: MST inhibition of ssDNA-binding activity, TbRPA1 DBD-AB S105T mutant; set-up: species or system T. brucei; conditions: dT32, 30 nM protein
Text: as §1, §2

TbRPA1 DBD-AB [6] = molecular target: T2, TbRPA1 DBD-AB; assay: MST inhibition of ssDNA-binding activity, TbRPA1 DBD-AB; conditions: 4-PL
Text: as §1, §2

T. brucei cells [7] = assay: Cell-cycle analysis by PI staining and flow cytometry; format: cell-based, Trypanosoma brucei; conditions: 10 µM
Description: About 10 million cells were collected, fixed with ice-cold 70% ethanol, and incubated with 50 μg/ml PI (Sigma-Aldrich) and 200 μg/ml RNase A (Sigma-Aldrich) in 1x PBS (Corning) at 37 °C for 30 min in the dark. Samples were analyzed by flow cytometry ([…], BD Biosciences) and FlowJo.

HsRPA1 DBD-AB [8] = molecular target: T3, HsRPA1 DBD-AB; assay: MST inhibition of ssDNA-binding activity, HsRPA1 DBD-AB; conditions: dT32, MST
Text: as §1, §2

T. brucei cells [9] = assay: DNA synthesis assay by BrdU pulse labeling; format: cell-based, Trypanosoma brucei; conditions: 10 µM, after 8 h of treatment
Description: The 5-Bromo-2′-deoxyuridine (BrdU) incorporation assay was performed as described previously in ref. [49]. BrdU (Sigma-Aldrich, catalog number B5002) was added to cell cultures to a final concentration of 500 μM and incubated for 40 min at 37 °C. About 20 million cells were harvested and fixed in ice-cold 70% ethanol. DNA in fixed cells was denatured in 0.1 N HCl (Fisher Scientific) with 0.5% Tween 20 (Sigma-Aldrich) and 1% BSA (Jackson Immunoresearch) for 20 min at room temperature. To stain newly incorporated DNA, fixed cells were incubated with 1 µg/ml mouse anti-BrdU antibody (BD Pharmingen, catalog number 555627, lot 6084615, dilution 1:500) at room temperature for 2.5 h and then with 4 µg/ml donkey anti-mouse Alexa 488 (Invitrogen, catalog number A-21202, lot 94C2-1, dilution 1:500) at room temperature for 1 h in the dark. Bulk DNA was stained with 5 µg/ml PI by incubating at room temperature for 30 min in the dark. Samples were analyzed by flow cytometry (FACSVia, BD Biosciences) and FlowJo.

LmexRPA1 DBD-AB = assay: EMSA inhibition of ssDNA binding, LmexRPA1 DBD-AB; set-up: species or system L. mexicana
Description: Increasing concentrations of recombinant protein (from 0.05 to 100 nM) were incubated with 2 nM of 5´IRDye800-labeled oligo in binding buffer (20 mM Tris, pH 7.5, 10 mM NaCl, 10 mM MgCl2, 2 mM dithiothreitol (DTT), 10% glycerol, and 0.1 mg/ml BSA) for 15 min at room temperature. About 4 μl of 6x Orange dye (Sigma) was added to the 20 μl reaction, and from that, 8 μl was separated on a non-denaturing polyacrylamide gel in 1x Tris-Borate-EDTA (TBE, Invitrogen) buffer; 4% gel for RPA complex and 8% for DBD-AB, DBD-A, or DBD-B proteins. Gels were pre-run for 1 h at a constant 100 V. Protein–ssDNA complex and unbound ssDNA were separated by running the gel at a constant 80 V at 4 °C in the dark and then visualized using LI-COR Odyssey imaging system and quantified with ImageJ software.
Samples were separated on a non-denaturing polyacrylamide gel and analyzed as described above in ssDNA-binding assay.

T. brucei cells [10] = assay: Microscopic analysis of treated cells (DAPI); format: cell-based, Trypanosoma brucei; conditions: 10 µM
Description: For microscopic analysis, untreated or JC-229 treated cells were seeded, and fixed with 1% paraformaldehyde for 10 min at room temperature. Cells were then washed with 1x PBS and stained with DAPI (0.5 µg/ml) (Sigma). Images were captured using fluorescence microscopy (EVOS M5000, Thermo Fisher Scientific) at 40x magnification and edited with Adobe Photoshop.

T2 sequence (Q384B5 entry or part of it): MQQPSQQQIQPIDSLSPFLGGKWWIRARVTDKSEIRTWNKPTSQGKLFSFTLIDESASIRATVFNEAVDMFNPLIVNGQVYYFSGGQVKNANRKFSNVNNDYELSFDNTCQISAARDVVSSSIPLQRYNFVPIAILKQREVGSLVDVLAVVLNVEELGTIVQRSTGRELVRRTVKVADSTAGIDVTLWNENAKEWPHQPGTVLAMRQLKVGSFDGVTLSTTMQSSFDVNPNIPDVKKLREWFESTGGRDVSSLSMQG
T3 sequence (P27694 181-427 limits assumed): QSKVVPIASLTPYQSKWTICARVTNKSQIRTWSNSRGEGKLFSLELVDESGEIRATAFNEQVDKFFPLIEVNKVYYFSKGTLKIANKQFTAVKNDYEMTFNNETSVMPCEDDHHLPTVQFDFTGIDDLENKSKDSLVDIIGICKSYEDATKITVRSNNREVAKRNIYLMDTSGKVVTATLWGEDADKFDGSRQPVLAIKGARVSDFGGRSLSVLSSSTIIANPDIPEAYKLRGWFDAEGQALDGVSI
T1 sequence (P27694 1-181): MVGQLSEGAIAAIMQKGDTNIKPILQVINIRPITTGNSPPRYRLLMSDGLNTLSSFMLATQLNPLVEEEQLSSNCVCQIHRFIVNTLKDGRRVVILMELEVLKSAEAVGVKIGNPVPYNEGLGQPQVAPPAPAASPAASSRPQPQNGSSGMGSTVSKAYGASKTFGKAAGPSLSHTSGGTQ

In the case of `Cc1ccc(C(=O)Nc2ccc(Cl)c(Cl)c2)cc1S(=O)(=O)Nc1ccc(Cl)c(Cl)c1` [JC-229, N-(3,4-dichlorophenyl)−3-(N-(3,4-dichlorophenyl)sulfamoyl)−4-methylbenzamide], the “Effect on ssDNA binding of TbRPA S105T mutant complex (EMSA)” value [1] is reported as “not affected”, the “Effect on parasite proliferation” value (T. brucei cells [2]; 50 µM, 3 days, AlamarBlue) is reported as “abolished parasite proliferation” and the EC50 (T. brucei cells [2]; Trypanosoma brucei, 72 h, read-out: EC50 (T. brucei growth inhibition), WT T. brucei, 72 h, AlamarBlue, standard 4-PL curve) is reported as 6.6 µM. The EC50 (T. brucei cells [2]; Trypanosoma brucei, 72 h, read-out: EC50 (T. brucei), 0.5-50 μM, 72 h, AlamarBlue, inhibitor vs. normalized response, variable slope (Fig. 3f)) was 6.54 µM, the EC50 (T. brucei cells [2]; Trypanosoma brucei, read-out: EC50, WT (WT/WT), Fig. 8d WT strain, 72 h, [Inhibitor] vs. norm response, variable slope) was 5.68 µM and the EC50 (T. brucei cells [2]; Trypanosoma brucei, read-out: EC50, WT (WT/WT), Suppl. Table 5-B, Sigmoidal, 4-PL) was 5.65 µM. For the same compound, the EC50 (T. brucei cells [2]; read-out: EC50 (T. brucei growth inhibition), WT T. brucei, 72 h, AlamarBlue, standard 4-PL curve) was 6.58 µM and 6 µM, the EC50 (T. brucei cells [2]; read-out: EC50 (T. brucei), 0.5-50 μM, 72 h, AlamarBlue, inhibitor vs. normalized response, variable slope (Fig. 3f)) was 6.5 µM and the EC50 (T. brucei cells [2]; read-out: EC50, WT (WT/WT), Fig. 8d WT strain, 72 h, [Inhibitor] vs. norm response, variable slope) was 5.7 µM. The IC50 [3] was ~60 µM and 60.8 µM, the “Inhibition of ssDNA binding of TbDBD-AB (EMSA)” value (TbRPA1 DBD-AB [4]) was “inhibited by JC-229 in a dose-dependent manner” and the “Inhibition of TcRPA1 DBD-AB ssDNA binding (EMSA)” value (TcRPA1 DBD-AB) was “did not inhibit”. The “Inhibition of HEK293 at EC50 to T. brucei” value (HEK293; 6.5 µM) was “barely inhibited”, the EC50 (HEK293; Homo sapiens, 0.5-50 μM, 72 h, AlamarBlue, inhibitor vs. normalized response, variable slope (Fig. 3f)) was 18 µM and the EC50 (HEK293; Homo sapiens, 72 h, Sigmoidal, 4-PL (Suppl. Table 1-B)) was 10.3 µM. For the same compound, the inhibition at 50 µM (HEK293; Homo sapiens, HEK293, 50 µM, 72 h, read-out: Inhibition of HEK293 at maximum concentration) was under 100%, the “Inhibition of ssDNA binding of HsDBD-AB (EMSA)” value (HsRPA1 DBD-AB [5]) was “did not inhibit” and the “IC50, inhibition of TbRPA1 DBD-AB S105T ssDNA binding” value (TbRPA1 DBD-AB S105T) was “No inhibition; also recorded: did not inhibit”. The IC50 (TbRPA1 DBD-AB [6]; dT12, 30 nM protein) was 2.8 µM, the IC50 (TbRPA1 DBD-AB [6]; dT20, 30 nM protein) was 0.881 µM and the IC50 (TbRPA1 DBD-AB [6]; dT32, 30 nM protein) was 0.228 µM. For the same compound, the Sub-G1 population (T. brucei cells [7]; 32 h) was about 45%, the “Cells that lost the bulk of their DNA” value (T. brucei cells [7]; 48 h) was about 97% and the “IC50, inhibition of HsRPA1 DBD-AB ssDNA binding” value (HsRPA1 DBD-AB [8]) was “No inhibition; also recorded: no inhibitory effect”. For the same compound, the “New DNA synthesis (BrdU incorporation)” value (T. brucei cells [9]) was “completely blocked new DNA synthesis; also recorded: completely blocking DNA synthesis”, the “Inhibition of LmexRPA1 DBD-AB ssDNA binding (EMSA)” value (LmexRPA1 DBD-AB) was “did not inhibit” and the “Microscopic analysis of treated cells” value (T. brucei cells [10]) was “leads to cell death”.
